These results are taken from patent publication US20040082591A1, “Therapeutic heterocyclic compounds” (priority 2001, published 2004).

The Kd is a measure of binding affinity in units of concentration. As usually defined, the melting point is the temperature of the solid-liquid transition.

In one data set the test system is 5-HT1B receptors and 5-HT1D receptors. The data set is described as follows: Radioligand competition binding with [3H]-GR125743 on membranes of transfected CHO cells.
Settings: not given
From the text: Other assays that may be used to measure for example affinity of compounds of the present invention for 5HT1B and 5HT1D receptors are described in J. Med. Chem 41:1218-1235, 1228 (1998) and J. Med. Chem 42:4981-5001, (1999) and incorporated by reference herein. These assays may be used with some modifications: Frozen membrane preparations of a stably transfected chinese hamster ovary (CHO) cell line expressing 5-HT1B receptors and 5-HT1D receptors are thawed rapidly, briefly vortexed, and diluted in assay buffer (AB) containing 50 mM Tris-HCl, 4 mM MgCl2, 4 mM CaCl2, 1 mM EDTA, and adjusted to pH 7.4 with NaOH. Final protein concentrations are—0.185 mg/ml for 5-HT1B, and 0.4 mg/ml for 5-HT1D membranes. Test compounds are evaluated in competition assays using [^3H]-GR125743 (Amersham). The ligand concentration in both assays was 0.27 nM. […] The 5-HT1B and 5-HT1D assays are performed simultaneously on one 96-well assay plate, one drug/compound per plate. Ten serial dilutions (1 uM to 4 pM, final concentration) of compound are prepared in DMSO from 10 mM stock solutions. Incubation mixtures are prepared in quadruplicate in 96-deep well assay plates (Matrix 1 ml). […] The plates are then counted on a Packard TopCount to determine CPM's per well. Ki values are determined for each test compound utilizing the graphic and analytical software package, GraphPad Prism. […]
(In general: Loss of bound radioactivity is the signal in a displacement assay; it reports binding, not function.)
On to `COc1ccc(NC(=O)c2ccc(-c3ccncc3)c(C)c2)cc1N1CCN(C)CC1` [[^3H]-GR125743], for which the Kd lay within 0.15 to 0.25 nM.

For a further data set, the system named is Hartley guinea pigs. The experiment in a line: Learned helplessness test. The format is in vivo, guinea pig. The settings on record: antidepressant/antianxiety activity. From the text: The utility of the compounds for example to treat depression may be shown via a learned helplessness test in guinea pigs, which is used extensively as correlative to antidepressant activity in humans. The learned helplessness test may be carried out as follows: Seventy male Hartley guinea pigs, each weighing about 350-425 gm are fed ad lib, and are housed under a 12-hour light/dark cycle. The procedure consists of two phases: The induction phase and the avoidance training phase. In the induction phase, subjects are placed into standard shuttle cages (20 L×16 W×21 centimeters H) which are fitted with a grid floor. Electrical stimulation (1.25 mA, 10 sec duration) is delivered to the floor of the cage every 90-sec during 1 hour daily sessions. Subjects have no opportunity to escape or to avoid shocks. Induction is conducted for 2 consecutive days.
In avoidance training, testing is also conducted in the shuttle cages, except that the subjects are not returned to the same chamber in which induction had occurred. Additionally, all cages are fitted with a partition with an arch in the center of the cage, through which animals can pass between the left and right halves of the cage. The procedure employed is a standard shuttle avoidance procedure in which a compound, conditioned stimulus (a 10-sec presentation of a tone and turning on of a lamp on the side of the cage that the guinea pig was occupying) serves to indicate presentation of electrical current to the floor of the cage. Shock is presented for a 5 sec period, 5 sec after initiation of the conditioned stimulus. Entry into the opposite side of the shuttle cage via the arched partition prior to shock onset results in the end of the trial (avoidance response). If shock is delivered, entry into the opposite side of the cage results in termination of the shock and CS (escape). Reversal of learned helplessness in the induction subjects correlates to antidepressant activity of the test compound.
Avoidance training, 45-min in duration, is conducted on 2 consecutive days, beginning 48 hr after the final induction session. Seventy subjects are assigned to 1 of 6 groups of 11-12 animals. The groups are as follows:
Groups 2-6 are given induction and avoidance training sessions. Injections are administered immediately following induction sessions and 1 hour prior to avoidance training sessions. A second injection is administered 7-8 hours following the first injection, for a total of 9 injections administered over 5 days. No injections are administered following the final avoidance training session.
Compounds of the present invention may be administered in a volume of 1 mL/kg bwt. Imipramine is dissolved in DI water. The compounds are dissolved in DI water, to which was added a few drops of lactic acid (pH 5.5). […]
Take `COc1cc(N2CCN(C)CC2)c2oc(C(=O)Nc3ccc(N4CCOCC4)cc3)cc(=O)c2c1` [Example 31, 6-Methoxy-8-(4-methyl-piperazin-1-yl)-4-oxo-4H-chromene-2-carboxylic acid (4-morpholin-4-yl-phenyl)-amide]: the “activity in the learned helplessness assay” value was “demonstrate activity”.
Still for that read-out and setting: the result for `CCC(=O)N1CCN(c2ccc(NC(=O)c3cc(=O)c4cc(OC)cc(N5CCN(C)CC5)c4o3)cc2)CC1` [Example 44, 6-Methoxy-8-(4-methyl-piperazin-1-yl)-4-oxo-4H-chromene-2-carboxylic Acid [4-(4-propionyl-piperazin-1-yl)-phenyl]-amide] reads “demonstrate activity”; that for `CCS(=O)(=O)N1CCN(c2ccc(NC(=O)c3cc(=O)c4cc(F)cc(N5CCN(C)CC5)c4o3)cc2)CC1` [Example 71], “demonstrate activity”; that for `CCC(=O)N1CCN(c2ccc(NC(=O)c3cc(=O)c4cc(F)cc(N5CCN(C)CC5)c4o3)cc2)CC1` [Example 72, 6-flouro-8-(4-methyl-piperazin-1-yl)-4-oxo-4H-chromene-2-carboxylic acid [4-(4-propionyl-piperazin-1-yl)-phenyl]-amide], “demonstrate activity”.

A further data set deals with 5-HT1B and 5HT1D receptors.
Assay: not given
The settings on record: saturation studies, guinea pig cortex; 'may result in a measurement of'; read-out: Kd value of [3H]GR125743; cited from earlier work.
Turning to `COc1ccc(NC(=O)c2ccc(-c3ccncc3)c(C)c2)cc1N1CCN(C)CC1` [[^3H]-GR125743], the equilibrium dissociation constant (Kd) is 0.046 ± 0.004 nM.

Tested on in a further data set: not given
Assay: not given
Settings: not given
As to `CN1CCN(c2cccc3c2OC(C(=O)Nc2ccc(N4CCOCC4)cc2)CC3)CC1` (racemic) [Example 75, Racemic-8-(4-Methyl-piperazin-1-yl)-chroman-2-carboxylic acid (4-morpholin-4-yl-phenyl)-amide], the melting point was 215 to 216 °C.
With `CN1CCN(c2cccc3c2OC(C(=O)Nc2ccc(N4CCOCC4)cc2)CC3=O)CC1` (racemic) [Example 78, racemic-8-(4-methyl-piperazin-1-yl)-4-oxo-chroman-2-carboxylic acid (4-morpholin-4-yl-phenyl)-amide], the melting point lay in the range of 215 to 216 °C.
`CN1CCN(c2cccc3c2OC(C(=O)Nc2ccc(N4CCOCC4)cc2)CC3=O)CC1` (single isomer, unassigned) [Example 79, 8-(4-Methyl-piperazin-1-yl)-4-oxo-chroman-2-carboxylic Acid (4-morpholin-4-yl-phenyl)-amide]: the melting point was 216 °C (dec.).
Still for that read-out and setting: then `CN1CCN(c2cccc3c2OC(C(=O)Nc2ccc(N4CCOCC4)cc2)CC3=O)CC1` (single isomer, unassigned) [Example 80, 8-(4-Methyl-piperazin-1-yl)-4-oxo-chroman-2-carboxylic Acid (4-morpholin-4-yl-phenyl)-amide], with 215 °C (dec.).
In turn, `CN1CCN(c2cccc3c2OC(C(=O)Nc2ccc(N4CCOCC4)cc2)CC3)CC1` (single isomer, unassigned; (+)) [Example 76, (+)-8-(4-Methyl-piperazin-1-yl)-chroman-2-carboxylic Acid (4-morpholin-4-yl-phenyl)-amide] gave a melting point of 206 to 207 °C.
On the same count and under the same terms, the result for `CN1CCN(c2cccc3c2OC(C(=O)Nc2ccc(N4CCOCC4)cc2)CC3)CC1` (single isomer, unassigned; (-)) [Example 77, (−)-8-(4-Methyl-piperazin-1-yl)-chroman-2-carboxylic Acid (4-morpholin-4-yl-phenyl)-amide] reads 205.5 to 207 °C; that for `CN1CCN(c2cccc3c(=O)cc(C(=O)Nc4ccc(N5CCOCC5)cc4)oc23)CC1` [Example 1, 8-(4-methyl-1-piperazinyl)-N-[4-(4-morpholinyl)phenyl]-4-oxo-4H-chromene-2-carboxamide], 217 to 218 °C (dec.).
The compound `CN1CCN(c2cccc3c(=O)cc(-c4nc5ccc(N6CCOCC6)cc5o4)oc23)CC1` [Example 21, 8-(4-Methyl-piperazin-1-yl)-2-(6-morpholin-4-yl-benzooxazol-2-yl)-chromen-4-one] came in with a melting point of 158.1 to 158.8 °C.
`CN1CCN(c2cccc3c(=O)cc(C(=O)Nc4ccc(N5CCOCC5)cc4O)oc23)CC1` [Example 22, 8-(4-Methyl-piperazin-1-yl)-4-oxo-4H-chromene-2-carboxylic Acid (2-hydroxy-4-morpholin-4-yl-phenyl)-amide] registered a melting point of 248.4 to 249.6 °C.
With `COc1cc(N2CCN(C)CC2)c2oc(C(=O)Nc3ccc(N4CCOCC4)cc3)cc(=O)c2c1` [Example 31, 6-Methoxy-8-(4-methyl-piperazin-1-yl)-4-oxo-4H-chromene-2-carboxylic acid (4-morpholin-4-yl-phenyl)-amide], the melting point lay within 234 to 236 °C.
The same measure, in the same setting: then `COc1cc(N2CCN(C)CC2)c2oc(C(=O)Nc3ccc(N4CCN(C(=O)CCO)CC4)cc3)cc(=O)c2c1` [Example 68, 6-Methoxy-8-(4-methyl-piperazin-1-yl)-4-oxo-4H-chromene-2-carboxylic Acid {4-[4-(3-hydroxy-propanoyl)-piperazin-1-yl]-phenyl}-amide], with 195 to 197 °C.
In turn, `CCS(=O)(=O)N1CCN(c2ccc(NC(=O)c3cc(=O)c4cc(F)cc(N5CCN(C)CC5)c4o3)cc2)CC1` [Example 71] had a melting point of 233 to 234 °C.
Same read-out and setting: the result for `CN1CCN(c2cc(F)cc3c(=O)cc(C(=O)Nc4ccc(N5CCN(C(=O)CCO)CC5)cc4)oc23)CC1` [Example 73, 6-Fluoro-8-(4-methyl-piperazin-1-yl)-4-oxo-4H-chromene-2-carboxylic Acid {4-[4-(3-hydroxy-propanoyl)-piperazin-1-yl]-phenyl}-amide] reads 195 to 199 °C; that for `CCNC(=O)N1CCN(c2ccc(NC(=O)c3cc(=O)c4cc(F)cc(N5CCN(C)CC5)c4o3)cc2)CC1` [Example 81, 4-[4-({1-[6-Fluoro-8-(4-methyl-piperazin-1-yl)-4-oxo-4H-chromen-2-yl]-methanoyl}-amino)-phenyl]-piperazine-1-carboxylic Acid Ethylamide], 236 to 238 °C.
